From US20250026752A1, “POSITIVE ALLOSTERIC MODULATORS OF THE MUSCARINIC ACETYLCHOLINE RECEPTOR M4” (Vanderbilt University, priority 2021, published 2025)

Target: T1, human mAChR M4 (Homo sapiens, UniProt P08173)
T1 construct: expressed in transfected cells; host or cells: CHO-K1 (ATCC), stably expressing hM4 and Gqi5
T1 sequence (P08173 1-479): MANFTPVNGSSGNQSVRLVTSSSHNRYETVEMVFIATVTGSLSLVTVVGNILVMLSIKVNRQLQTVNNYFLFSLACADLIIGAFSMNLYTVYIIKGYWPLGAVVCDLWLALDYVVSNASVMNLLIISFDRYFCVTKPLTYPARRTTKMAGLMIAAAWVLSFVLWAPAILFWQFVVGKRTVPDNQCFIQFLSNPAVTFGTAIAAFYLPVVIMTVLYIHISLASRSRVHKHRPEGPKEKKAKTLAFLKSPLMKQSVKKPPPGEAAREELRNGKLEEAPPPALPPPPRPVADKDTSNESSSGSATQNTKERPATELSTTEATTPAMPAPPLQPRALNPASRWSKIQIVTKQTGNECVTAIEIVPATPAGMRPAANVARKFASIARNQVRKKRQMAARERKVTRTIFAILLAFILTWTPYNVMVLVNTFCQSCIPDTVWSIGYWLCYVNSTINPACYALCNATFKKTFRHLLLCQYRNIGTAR
Test: mAChR M4 cell-based functional assay: calcium flux (Fluo-4, FDSS), positive allosteric modulator activity on the EC20 acetylcholine response, hM4-Gqi5 CHO-K1 cells
Conditions: for Emax at 30 µM: CHO-K1, human M4, % ACh maximum at 30 μM; for EC50: human M4, PAM activity on EC20 acetylcholine response, calcium flux, read-out: Human M4 EC50
How it was run: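 Potentiation was taken as the concentration-dependent rise in the EC20 acetylcholine calcium response, fitted by a four-parameter logistic with EC20 as baseline. Fluo-4-loaded hM4-Gqi5 CHO-K1 cells received 11-point, threefold-diluted compound before acetylcholine at 144 s; FDSS read at 1 Hz.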

| SMILES | Emax at 30 µM [%] | EC50 [nM] |
| --- | --- | --- |
| FC(F)(F)c1cnc2c(c1)CN(c1nc(C3CC3)nc3ccc(Cl)cc13)CC2 [Compound 186, 6-chloro-2-cyclopropyl-4-[3-(trifluoromethyl)-7,8-dihydro-5H-1,6-naphthyridin-6-yl]quinazoline] | 75 | > 10000 |
| Cc1ccc(-c2cnc3c(c2)CN(c2nc(C(F)(F)F)nc4ccc(F)cc24)CC3)cn1 [Compound 67, 6-fluoro-4-[3-(6-methyl-3-pyridyl)-7,8-dihydro-5H-1,6-naphthyridin-6-yl]-2-(trifluoromethyl)quinazoline] | 55 | 660 |
| Cc1ccc2nc(C)nc(N3CCc4ncc(-c5cnn(C6CC6)c5)cc4C3)c2c1 [Compound 33, 4-[3-(1-cyclopropylpyrazol-4-yl)-7,8-dihydro-5H-1,6-naphthyridin-6-yl]-2,6-dimethyl-quinazoline] | 92 | 380 |
| Cc1nc(N2CCc3ncc(C(F)(F)F)cc3C2)c2cc(F)c(C)cc2n1 [Compound 172, 6-fluoro-2,7-dimethyl-4-[3-(trifluoromethyl)-7,8-dihydro-5H-1,6-naphthyridin-6-yl]quinazoline] | 81 | 810 |
| Cc1nc(N2CCc3ncc(-c4cnn(C5CC5)c4)cc3C2)c2cc(Cl)ccc2n1 [Compound 19, 6-chloro-4-[3-(1-cyclopropylpyrazol-4-yl)-7,8-dihydro-5H-1,6-naphthyridin-6-yl]-2-methyl-quinazoline] | 80 | 390 |
| C[C@@H]1CN(c2cnc3c(c2)CN(c2ncnc4ccc(F)cc24)CC3)CCO1 [Compound 104, (2R)-4-[6-(6-fluoroquinazolin-4-yl)-7,8-dihydro-5H-1,6-naphthyridin-3-yl]-2-methyl-morpholine] | 63 | 70 |
| Cc1nc(N2CCc3ncc(-c4ccc(C5CC5)nc4)cc3C2)c2cc(Cl)ccc2n1 [Compound 50, 6-chloro-4-[3-(6-cyclopropyl-3-pyridyl)-7,8-dihydro-5H-1,6-naphthyridin-6-yl]-2-methyl-quinazoline] | 83 | 1070 |
| Cc1nc(N2CCc3ncc(Oc4ccccc4F)cc3C2)c2cc(F)ccc2n1 [Compound 133, 6-fluoro-4-[3-(2-fluorophenoxy)-7,8-dihydro-5H-1,6-naphthyridin-6-yl]-2-methyl-quinazoline] | 87 | 230 |
| COc1ccc2ncnc(N3CCc4ncc(N5CCC(C(F)(F)F)n6nccc65)cc4C3)c2c1 (stereo not drawn) [Compound 90, 6-methoxy-4-[3-[7-(trifluoromethyl)-6,7-dihydro-5H-pyrazolo[1,5-a]pyrimidin-4-yl]-7,8-dihydro-5H-1,6-naphthyridin-6-yl]quinazoline] | 76 | 1360 |
| Fc1ccc2ncnc(N3CCc4ncc(N5CCCn6ccnc65)cc4C3)c2c1 [Compound 275, 4-(3-(6,7-dihydroimidazo[1,2-a]pyrimidin-8(5H)-yl)-7,8-dihydro-1,6-naphthyridin-6(5H)-yl)-6-fluoroquinazoline] | 73 | 2240 |
| Cc1nc(N2CCc3ncc(-c4cnn(C5CC5)c4)cc3C2)c2cc(F)ccc2n1 [Compound 5, 4-[3-(1-cyclopropylpyrazol-4-yl)-7,8-dihydro-5H-1,6-naphthyridin-6-yl]-6-fluoro-2-methyl-quinazoline] | 80 | 340 |
| Cc1nc(N2CCc3ncc(Nc4ccnn4C)cc3C2)c2cc(F)ccc2n1 [Compound 86, 6-(6-fluoro-2-methyl-quinazolin-4-yl)-N-(2-methylpyrazol-3-yl)-7,8-dihydro-5H-1,6-naphthyridin-3-amine] | 91 | 30 |
| Cc1nc(N2CCc3ncc(-c4cn(C)nc4C)cc3C2)c2cc(Cl)ccc2n1 [Compound 7, 6-chloro-4-[3-(1,3-dimethylpyrazol-4-yl)-7,8-dihydro-5H-1,6-naphthyridin-6-yl]-2-methyl-quinazoline] | 93 | 250 |
| Fc1ccc2ncnc(N3CCc4ncc(-c5ccc(C(F)(F)F)nc5)cc4C3)c2c1 [Compound 16, 6-fluoro-4-[3-[6-(trifluoromethyl)-3-pyridyl]-7,8-dihydro-5H-1,6-naphthyridin-6-yl]quinazoline] | 89 | 360 |
| Fc1ccc2nc(Oc3ccccc3F)nc(N3CCc4ncc(C(F)(F)F)cc4C3)c2c1 [Compound 199, 6-fluoro-2-(2-fluorophenoxy)-4-[3-(trifluoromethyl)-7,8-dihydro-5H-1,6-naphthyridin-6-yl]quinazoline] | 96 | 3370 |
| Cc1ccc2nc(NC3CCOC3)nc(N3CCc4ncc(C(F)(F)F)cc4C3)c2c1 (stereo not drawn) [Compound 207, 6-methyl-N-tetrahydrofuran-3-yl-4-[3-(trifluoromethyl)-7,8-dihydro-5H-1,6-naphthyridin-6-yl]quinazolin-2-amine] | 75 | 440 |
| FC(F)(F)c1cnc2c(c1)CN(c1nc(Cl)nc3ccccc13)CC2 [Compound 123, 2-chloro-4-[3-(trifluoromethyl)-7,8-dihydro-5H-1,6-naphthyridin-6-yl]quinazoline] | 68 | 340 |
| Cc1nc(N2CCc3ncc(C(F)(F)F)cc3C2)c2c(F)cccc2n1 [Compound 125, 5-fluoro-2-methyl-4-[3-(trifluoromethyl)-7,8-dihydro-5H-1,6-naphthyridin-6-yl]quinazoline] | 78 | 400 |
| Cc1ccc(-c2cnc3c(c2)CN(c2nc(Cl)nc4ncccc24)CC3)cn1 [Compound 36, 2-chloro-4-[3-(6-methyl-3-pyridyl)-7,8-dihydro-5H-1,6-naphthyridin-6-yl]pyrido[2,3-d]pyrimidine] | 69 | 650 |
| Cc1nc(N2CCc3ncc(-c4ccc(N(C)C)nc4)cc3C2)c2cc(F)ccc2n1 [Compound 24, 5-[6-(6-fluoro-2-methyl-quinazolin-4-yl)-7,8-dihydro-5H-1,6-naphthyridin-3-yl]-N,N-dimethyl-pyridin-2-amine] | 92 | 590 |
| Cc1nc(N2CCc3ncc(-c4ccnn4C(C)C)cc3C2)c2cc(Cl)ccc2n1 [Compound 254, 6-chloro-4-(3-(1-isopropyl-1H-pyrazol-5-yl)-7,8-dihydro-1,6-naphthyridin-6(5H)-yl)-2-methylquinazoline] | 86 | 360 |
| Cc1ccc2nc(C)nc(N3CCc4ncc(-c5ccccc5C)cc4C3)c2c1 [Compound 316, 2,6-dimethyl-4-(3-(o-tolyl)-7,8-dihydro-1,6-naphthyridin-6(5H)-yl)quinazoline] | 93 | 1600 |
| COc1ccc2ncnc(N3CCc4ncc(-c5ccccc5C)cc4C3)c2c1 [Compound 296, 6-methoxy-4-(3-(o-tolyl)-7,8-dihydro-1,6-naphthyridin-6(5H)-yl)quinazoline] | 102 | 1370 |
| Cc1noc(C)c1-c1cnc2c(c1)CN(c1ncnc3ccc(Cl)cc13)CC2 [Compound 2, 4-[6-(6-chloroquinazolin-4-yl)-7,8-dihydro-5H-1,6-naphthyridin-3-yl]-3,5-dimethyl-isoxazole] | 86 | 60 |
| FC(F)(F)c1cnc2c(c1)CN(c1nc(Cl)nc3ncccc13)CC2 [Compound 121, 2-chloro-4-[3-(trifluoromethyl)-7,8-dihydro-5H-1,6-naphthyridin-6-yl]pyrido[2,3-d]pyrimidine] | 69 | 360 |
| Cc1ccc(Oc2cnc3c(c2)CN(c2nc(C)nc4ccc(Cl)cc24)CC3)c(F)c1 [Compound 147, 6-chloro-4-[3-(2-fluoro-4-methyl-phenoxy)-7,8-dihydro-5H-1,6-naphthyridin-6-yl]-2-methyl-quinazoline] | 54 | 8340 |
| Cc1ccc2nc(NCC(C)(C)O)nc(N3CCc4ncc(C(F)(F)F)cc4C3)c2c1 [Compound 208, 2-methyl-1-[[6-methyl-4-[3-(trifluoromethyl)-7,8-dihydro-5H-1,6-naphthyridin-6-yl]quinazolin-2-yl]amino]propan-2-ol] | 76 | 390 |
| COc1ccc2ncnc(N3CCc4ncc(N5CCOc6ncccc65)cc4C3)c2c1 [Compound 79, 1-[6-(6-methoxyquinazolin-4-yl)-7,8-dihydro-5H-1,6-naphthyridin-3-yl]-2,3-dihydropyrido[2,3-b][1,4]oxazine] | 105 | 250 |
| Fc1cccc(Oc2cnc3c(c2)CN(c2ncnc4cc(F)c(F)cc24)CC3)c1 [Compound 159, 6,7-difluoro-4-[3-(3-flurophenoxy)-7,8-dihydro-5H-1,6-naphthyridin-6-yl]quinazoline] | 81 | 680 |
| Fc1ncccc1Nc1cnc2c(c1)CN(c1nc(Cl)nc3ccc(Cl)cc13)CC2 [Compound 88, 6-(2,6-dichloroquinazolin-4-yl)-N-(2-fluoro-3-pyridyl)-7,8-dihydro-5H-1,6-naphthyridin-3-amine] | 103 | 1070 |
